pIC50: −log10 of the molar value.
Assays:
[1] = Chemical stability in simulated gastric fluid (SGF); type: physicochemical; conditions: SGF without enzymes, pH 1,4; 10 μm; 2 hours at 37° C.; substance amount remaining
Summary of the method: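 Compound at 10 μm (diluted from 10 mM DMSO stock) incubated 2 h at 37° C in enzyme-free SGF, pH=1,4, or enzyme-free SIF, pH=6.5. HPLC peak areas before and after incubation give % compound remaining.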

[2] = system: HCC827 (lung adenocarcinoma, SM, exon19delE746-A750); test: Antiproliferative activity on HCC827 cells (Alamar Blue); type: cell-based; conditions: Homo sapiens, antiproliferative test
Summary of the method: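 HCC827 cells (EGFR exon19del E746-A750), 10×10^3/well, attached 16–18 h, then exposed to compounds for 72 h at 37 °C in RPMI-1640 with 2% FBS, ≤1% DMSO. Viability by Alamar Blue fluorescence (ex 540/em 590 nm) after 3–5 h; IC50 by four-parameter logistic fit.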

Stability in SGF, % [1] [%] | pIC50 [2] | SMILES
100.0 | 8.24 | C=CC(=O)Nc1cc(Nc2nccc(C(=O)c3ccc(N4CC(OC)C4)cc3)n2)c(OC)cc1N(C)CCN(C)C [EGFR_3365_61, N-(2-((2-(dimethylamino)ethyl)(methyl)amino)-4-methoxy-5-((4-(4-(3-methoxyazetidin-1-yl)benzoyl)pyrimidin-2-yl)amino)phenyl)acrylamide]
100.0 | 8.37 | C=CC(=O)Nc1cc(Nc2nccc(C(=O)c3ccc(N4CCCC4)cc3)n2)c(OC)cc1N(C)CCN(C)C [EGFR_3365_63, N-(2-((2-(dimethylamino)ethyl)(methyl)amino)-4-methoxy-5-((4-(4-(pyrrolidin-1-yl)benzoyl)pyrimidin-2-yl)amino)phenyl)acrylamide]
100.0 | 7.57 | C=CC(=O)Nc1cc(Nc2cc(C(=O)c3ccc(OCCC)cc3)ccn2)c(OC)cc1N(C)CCN(C)C [EGFR_3365_50, N-(2-((2-(dimethylamino)ethyl)(methyl)amino)-4-methoxy-5-((4-(4-propoxybenzoyl)pyridin-2-yl)amino)phenyl)acrylamide]
100.0 | 8.64 | C=CC(=O)Nc1cc(Nc2cc(C(=O)c3ccccc3)ccn2)c(OC)cc1N(C)CCN(C)C [EGFR_3365_3, N-(5-((4-benzoylpyridin-2-yl)amino)-2-((2-(dimethylamino)ethyl)(methyl)amino)-4-methoxyphenyl)acrylamide]
